# Measurements from PubChem BioAssay (NCI).
# Several values for one entry are separate records, joined by “and”; a condition that tells them apart may be missing. Identical values can stand only once.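 96-well plates; 48 h exposure; 5 concentrations. Endpoints by linear interpolation between flanking doses. Not reached: highest tested concentration assigned. GI50 = concentration required for 50% inhibition of growth. TGI: concentration producing complete growth inhibition.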
# Test system: MDA-MB-468 breast
# Assay: NCI-60 cell line screen, 48 h
Compound,GI50,TGI
Cc1c(Cl)cccc1Nc1ncccc1C(=O)O,84400 nM,> 100 µM
O=C(O)CCCc1ccc(N(CCCl)CCCl)cc1,23100 nM,99.2 µM
N#Cc1c(O)c2c(c(O)c1C#N)C(=O)c1ccccc1C2=O,1630 nM,6.17 µM
CN=C1NC(=O)/C(=C/c2ccc3ncccc3c2)S1,3260 nM,21.6 µM
CCOC(=O)c1cc(-c2ccc([N+](=O)[O-])cc2)n(-c2ccc(C(=O)O)c(O)c2)c1C,2800 nM,10.7 µM
O=C1c2ccccc2C(=O)c2c1ccc1[nH]c(CCl)nc21,1940 nM,4.29 µM
COC(=O)c1c2c(c(C)[n+]([O-])c1C)C(=O)C=CC2=O,946 nM,2.71 µM
CNC(=O)c1cc(Oc2ccc3c(c2)sc2nc(-c4ccc(N)cc4)cn23)ccn1,304 nM,> 100 µM
Fc1ccc(-c2nn(-c3ccccc3)cc2-c2nc3ccccc3o2)cc1,249 nM,0.877 µM
O=[n+]1c(CBr)c(CBr)n([O-])c2ccccc21,7380 nM,20.4 µM
O=C(NNc1nc2cc(F)c(F)cc2n2cccc12)c1cccnn1,408 nM and 204 nM,1.5 µM and 0.712 µM
NS(=O)(=O)c1ccc(-n2nc(-c3ccc(Br)cc3)ccc2=O)cc1,> 10000 nM,> 10 µM
COc1ccc(CN2CCCC(C(=O)c3ccc(C(F)(F)F)cc3)C2)c(O)c1 (configuration not stated),15700 nM,41.6 µM
CS(=O)c1nccc(-c2c(-c3ccc(F)c(OCCc4ccc(F)cc4)c3)nc3sccn23)n1 (configuration not stated),1730 nM,3.76 µM
Cn1c(-c2nonc2N)nc2cnccc21,> 25000 nM,> 25 µM
CCN1CCN(c2nc(NCCNc3ccnc4cc(Cl)ccc34)c3ccccc3n2)CC1,752 nM,2.34 µM
CC1=C(CCCOC(=O)NCCCl)C2=C(C)C3(CC3)[C@@](C)(O)C(=O)C2=C1,1830 nM,5.08 µM
O=C(Cc1ccc(/C=C/C(=O)c2ncc[nH]2)cc1)Nc1ccc(Cl)cc1,1680 nM,6.2 µM
COc1ccccc1NC(=O)c1ccc(/C=C/C(=O)c2nccn2C)cc1,383 nM,0.848 µM
ClCc1ccccc1CSc1ncnc2nc[nH]c12,48900 nM,> 60 µM
COc1cccc(-c2nn(-c3ccccc3)cc2-c2ccnc(NCCCNS(=O)(=O)c3cccc(F)c3)c2)c1,3490 nM,30.4 µM
COc1ccc(CNC(=O)COc2ccc(/C=N/Nc3nc4ccccc4s3)cc2)cc1,1900 nM,6.09 µM
Cn1cc(C2=C(c3ccc(OC[C@@H](O)CO)cc3)C(=O)NC2=O)c2ccccc21,> 25000 nM,> 25 µM
C[C@@H]1Cc2c([nH]c3ccccc23)[C@@H](c2c(F)cc(/C=C/C(=O)O)cc2F)N1CC(C)(C)F,16900 nM,53.5 µM
OC(c1cccc(C(F)(F)F)c1)c1cnccc1NC1CCCCCC1 (configuration not stated),1220 nM,2.76 µM
COc1nc2c(cc1S(=O)(=O)c1ccccc1)CCc1c-2cnn1-c1ccccc1Cl,3700 nM,> 100 µM
